Paper PMC8587101, “Design and Synthesis of Novel Betulin Derivatives Containing Thio-/Semicarbazone Moieties as Apoptotic Inducers through Mitochindria-Related Pathways” (Molecules, 2021)
Where “and” joins values, the source holds several entries; their conditions need not be identical. Equal entries are not always repeated. Where two headings read alike, the source gives them in different places.

Columns and labels:
[1] = tested on: human lung carcinoma cells (A549); assay: MTT cytotoxicity assay, A549; assay type: cell-based; details: read-out: IC50 (μM) A549
[2] = tested on: normal human gastric epithelial cells (GES-1); assay: MTT cytotoxicity assay, GES-1 normal cells; assay type: cell-based; details: read-out: IC50 (μM) GES-1
[3] = tested on: human breast carcinoma cells (MCF-7); assay: MTT cytotoxicity assay, MCF-7; assay type: cell-based; details: read-out: IC50 (μM) MCF-7
[4] = tested on: human colorectal cells (HCT-116); assay: MTT cytotoxicity assay, HCT-116; assay type: cell-based; details: read-out: IC50 (μM) HCT-116
[5] = A549, MTT, 48 h, means ± SD of three experiments
[6] = GES1, MTT, 48 h, normal cells, means ± SD of three experiments, “-” not active
[7] = Homo sapiens, MCF7, 48 h, MTT, 48 h, means ± SD of three experiments
[8] = HCT-116, MTT, 48 h, means ± SD of three experiments
[9] = MTT, 48 h, means ± SD of three experiments

Row | SMILES | IC50 ([1]; A549, 48 h) | IC50 ([2]; GES1, 48 h) | IC50 ([3]; Homo sapiens, MCF7, 48 h) | IC50 ([4]; HCT-116, 48 h) | IC50 [1, 5] | IC50 [2, 6] | IC50 [3, 7] | IC50 [4, 8] | melting point | IC50 [3, 9]
1 | C=C(C)[C@@H]1CC[C@]2(CO)CC[C@]3(C)[C@H](CC[C@@H]4[C@@]5(C)CC[C@H](O)C(C)(C)[C@@H]5CC[C@]43C)[C@@H]12 [Compound 1, lup-20(29)-ene-3β,28-diol, reference compound] | 27.1 ± 1.2 µM | 108 ± 4.34 µM | 19.4 ± 0.93 µM | 30 ± 1.22 µM |  |  |  |  |  | 
2 | C=C(C)[C@@H]1CC[C@]2(/C=N/NC(=O)Nc3ccc(Cl)cc3)CC[C@]3(C)C(CCC4[C@@]5(C)CC[C@H](O)C(C)(C)C5CC[C@]43C)C12 (stereo partly drawn) [Compound 7a, Lup-20(29)-ene-3β-ol-28-N-(4-chlorophenyl)semicarbazide] |  |  |  |  | 18.1 ± 1.03 µM | 70.8 ± 2.12 µM | 8.57 ± 0.6 µM | 34.8 ± 1.25 µM | 227.2 to 228.3 °C | 
3 | C=C(C)[C@@H]1CC[C@]2(/C=N/NC(=O)Nc3ccc(C#N)cc3)CC[C@]3(C)C(CCC4[C@@]5(C)CC[C@H](O)C(C)(C)C5CC[C@]43C)C12 (stereo partly drawn) [Compound 7b, Lup-20(29)-ene-3β-ol-28-N-(4-cyanophenyl)semicarbazide] |  |  |  |  | 25.1 ± 1.01 µM | 85.4 ± 3.37 µM | < 10 µM | 51.1 ± 2.52 µM | 236.5 to 238 °C | 7.88 ± 0.54 µM
4 | C=C(C)[C@@H]1CC[C@]2(/C=N/NC(=O)Nc3ccc(OC)cc3)CC[C@]3(C)C(CCC4[C@@]5(C)CC[C@H](O)C(C)(C)C5CC[C@]43C)C12 (stereo partly drawn) [Compound 7c, Lup-20(29)-ene-3β-ol-28-N-(4-methoxyphenyl)semicarbazide] |  |  |  |  | > 80 µM | > 80 µM | 44.4 ± 2.26 µM | > 80 µM | 214.2 to 216 °C | 
5 | C=C(C)[C@@H]1CC[C@]2(/C=N/NC(=O)Nc3ccc(C(F)(F)F)cc3)CC[C@]3(C)C(CCC4[C@@]5(C)CC[C@H](O)C(C)(C)C5CC[C@]43C)C12 (stereo partly drawn) [Compound 7d, Lup-20(29)-ene-3β-ol-28-N-(4-(trifluoromethyl)phenyl)semicarbazide] |  |  |  |  | 29.4 ± 1.12 µM | 168 ± 4.59 µM | 15.3 ± 1.23 µM | 28.6 ± 1.36 µM | 221.5 to 222.7 °C | 
6 | C=C(C)[C@@H]1CC[C@]2(/C=N/NC(=O)Nc3cccc(C(F)(F)F)c3)CC[C@]3(C)C(CCC4[C@@]5(C)CC[C@H](O)C(C)(C)C5CC[C@]43C)C12 (stereo partly drawn) [Compound 7e, Lup-20(29)-ene-3β-ol-28-N-(3-(trifluoromethyl)phenyl)semicarbazide] |  |  |  |  | 43.8 ± 1.44 µM | 196 ± 5.82 µM | < 10 µM | 26.1 ± 1.17 µM | 223.4 to 225.1 °C | 5.86 µM and 5.96 µM
7 | C=C(C)[C@@H]1CC[C@]2(/C=N/NC(=O)Nc3cccc(C)c3)CC[C@]3(C)C(CCC4[C@@]5(C)CC[C@H](O)C(C)(C)C5CC[C@]43C)C12 (stereo partly drawn) [Compound 7f, Lup-20(29)-ene-3β-ol-8-N-(m-tolyl)semicarbazide] |  |  |  |  | > 80 µM | > 80 µM | 26.8 ± 1.34 µM | > 80 µM | 224.2 to 226 °C | 
8 | C=C(C)[C@@H]1CC[C@]2(/C=N/NC(=O)Nc3ccc(Cl)c(C(F)(F)F)c3)CC[C@]3(C)C(CCC4[C@@]5(C)CC[C@H](O)C(C)(C)C5CC[C@]43C)C12 (stereo partly drawn) [Compound 7g, Lup-20(29)-ene-3β-ol-28-N-((3-trifluoromethyl-4-chloro)phenyl)semicarbazide] |  |  |  |  | 33.6 ± 1.15 µM | 145 ± 3.88 µM | < 10 µM | 13.5 ± 0.74 µM | 211.6 to 213 °C | 7.06 ± 0.44 µM
9 | C=C(C)[C@@H]1CC[C@]2(/C=N/NC(=S)Nc3ccc(F)cc3)CC[C@]3(C)C(CCC4[C@@]5(C)CC[C@H](O)C(C)(C)C5CC[C@]43C)C12 (stereo partly drawn) [Compound 8a, Lup-20(29)-ene-3β-ol-28-N-(4-fluorophenyl)thiosemicarbazide] |  |  |  |  | 24.1 ± 1.11 µM | 177 ± 5.02 µM | < 10 µM | 32.5 ± 1.26 µM | 209.3 to 211 °C | 9.8 ± 0.58 µM
10 | C=C(C)[C@@H]1CC[C@]2(/C=N/NC(=S)Nc3ccc(Cl)cc3)CC[C@]3(C)C(CCC4[C@@]5(C)CC[C@H](O)C(C)(C)C5CC[C@]43C)C12 (stereo partly drawn) [Compound 8b, Lup-20(29)-ene-3β-ol-28-N-(4-chlorophenyl)thiosemicarbazide] |  |  |  |  | 18.7 ± 0.98 µM | 203 ± 5.74 µM | < 10 µM | 49.5 ± 1.44 µM | 212.5 to 214 °C | 7.79 ± 0.45 µM
11 | C=C(C)[C@@H]1CC[C@]2(/C=N/NC(=S)Nc3ccc(C)cc3)CC[C@]3(C)C(CCC4[C@@]5(C)CC[C@H](O)C(C)(C)C5CC[C@]43C)C12 (stereo partly drawn) [Compound 8c, Lup-20(29)-ene-3β-ol-28-N-(p-tolyl)thiosemicarbazide] |  |  |  |  | > 80 µM | > 80 µM | 28.6 ± 1.06 µM | 46.3 ± 1.77 µM | 206.4 to 208.2 °C | 
12 | C=C(C)[C@@H]1CC[C@]2(/C=N/NC(=S)Nc3ccc(OC)cc3)CC[C@]3(C)C(CCC4[C@@]5(C)CC[C@H](O)C(C)(C)C5CC[C@]43C)C12 (stereo partly drawn) [Compound 8d, Lup-20(29)-ene-3β-ol-28-N-(4-methoxyphenyl)thiosemicarbazide] |  |  |  |  | > 80 µM | > 80 µM | 38.4 ± 1.58 µM | > 80 µM | 203.7 to 205.2 °C | 
13 | C=C(C)[C@@H]1CC[C@]2(/C=N/NC(=S)Nc3ccc(C(C)(C)C)cc3)CC[C@]3(C)C(CCC4[C@@]5(C)CC[C@H](O)C(C)(C)C5CC[C@]43C)C12 (stereo partly drawn) [Compound 8e, Lup-20(29)-ene-3β-ol-28-N-(4-tert-butylphenyl)thiosemicarbazide] |  |  |  |  | > 80 µM | > 80 µM | 46.4 ± 3.42 µM | > 80 µM | 216.8 to 218.2 °C | 
14 | C=C(C)[C@@H]1CC[C@]2(/C=N/NC(=S)Nc3ccc(Cl)c(Cl)c3)CC[C@]3(C)C(CCC4[C@@]5(C)CC[C@H](O)C(C)(C)C5CC[C@]43C)C12 (stereo partly drawn) [Compound 8g, Lup-20(29)-ene-3β-ol-28-N-(3,4-dichlorophenyl)thiosemicarbazide] |  |  |  |  | 16.9 ± 1.05 µM | 174 ± 5.14 µM | 11.3 ± 1.07 µM | 20.2 ± 0.87 µM | 219.8 to 221.8 °C | 
15 | CO[C@@]12[C@H](COC(N)=O)C3=C(C(=O)C(C)=C(N)C3=O)N1C[C@@H]1N[C@@H]12 [Mitomycin, Mitomycin C, reference compound] |  |  |  |  | 12.8 ± 1.08 µM | 20.5 ± 1.02 µM | 15.9 ± 1.03 µM | 11.4 ± 0.87 µM |  | 
